One test relates to IL-1β. As to the kind of experiment: Whole blood assay, LPS stimulation, MSD cytokine detection. In kind it is cell-based, bovine. The conditions noted are these: fresh whole bovine blood, LPS stimulation; drug concentration giving overstimulation (OS) of IL-1β.
In test [1] the test system is BRD pathogens, M. haemolytica and P. multocida. Nature of the test: In-vitro MIC model, BRD pathogen screening panel. Format: cell-based, Mannheimia haemolytica; Pasteurella multocida. The conditions noted are these: for MIC for at least one BRD strain (asterisk on Ex#): Table F, Formula (1-A1a) compounds.
The subject of a further test is TNF-α. Nature of the test: Whole blood assay, LPS stimulation, MSD cytokine detection. Format: cell-based. The settings on record: fresh whole bovine blood.
The next test concerns IL-6. The description is as above. In kind it is cell-based. The conditions noted are these: fresh whole bovine blood.

Marks after values point to notes of the source that are not given here.

What is called IC50 is the concentration at which inhibition is half-maximal. Higher therefore signals weaker potency in that assay. For the compound `CC[C@H]1OC(=O)[C@H](C)[C@@H](O)[C@H](C)[C@@H](O[C@@H]2O[C@H](C)C[C@H](N(C)C(=O)N(C)c3ccccc3)[C@H]2Oc2ccc(OC)cc2)[C@](C)(O)C[C@@H](C)CN(C)[C@H](C)[C@@H](O)[C@]1(C)O` [Example C-13], the “IL-1ß OS of LPS” value with IL-1β is 40 µM. The “MIC flag at the example number (Table C)” value in test [1] (at least one BRD strain) is “C-13* (MIC ≤ 64 μg/mL for at least one BRD strain)”. Besides, the IC50 in the test with TNF-α is 44 µM.
For `CCCNC[C@]1(O)[C@H](C)O[C@@H](O[C@H]2[C@H](C)[C@@H](O[C@@H]3O[C@H](C)C[C@H](NC)[C@H]3Oc3cccc(F)c3)[C@](C)(O)C[C@@H](C)CN[C@H](C)[C@@H](O)[C@](C)(O)[C@@H](CC)OC(=O)[C@@H]2C)C[C@@]1(C)OC` [Example E-7], in the test on IL-1β, the “IL-1ß OS of LPS” value came out at 40 µM. Further, the “MIC flag at the example number (Table E)” value in test [1] (at least one BRD strain) is “E-7* (MIC ≤ 64 μg/mL for at least one BRD strain)”. Moreover, the half-inhibitory concentration (IC50) with TNF-α was 15 µM; in the test on IL-6, 40 µM.
For the compound `CCCNC[C@]1(O)[C@H](C)O[C@@H](O[C@H]2[C@H](C)[C@@H](O[C@@H]3O[C@H](C)C[C@H](NC)[C@H]3Oc3cc(F)c(OC)c(F)c3)[C@](C)(O)C[C@@H](C)CN[C@H](C)[C@@H](O)[C@](C)(O)[C@@H](CC)OC(=O)[C@@H]2C)C[C@@]1(C)OC` [Example E-9], in the test on IL-1β, the “IL-1ß OS of LPS” value stood at 40 µM. Moreover, the “MIC flag at the example number (Table E)” value in test [1] (at least one BRD strain) was “E-9* (MIC ≤ 64 μg/mL for at least one BRD strain)”. Further, the figures for the IC50 in the test on TNF-α and in the test with IL-6 were 18 µM and 30 µM, respectively.
Regarding `CCCNC[C@]1(O)[C@H](C)O[C@@H](O[C@H]2[C@H](C)[C@@H](O[C@@H]3O[C@H](C)C[C@H](NC)[C@H]3Oc3ccc(OC)c(OC(C)C)c3)[C@](C)(O)C[C@@H](C)CN[C@H](C)[C@@H](O)[C@](C)(O)[C@@H](CC)OC(=O)[C@@H]2C)C[C@@]1(C)OC` [Example E-20], in the test with IL-1β, the “IL-1ß OS of LPS” value was found to be 100 µM. Also, the “MIC flag at the example number (Table E)” value in test [1] (at least one BRD strain) is reported as “E-20* (MIC ≤ 64 μg/mL for at least one BRD strain)”. Besides, the concentration for half-maximal inhibition (IC50) in the test with TNF-α was 25 µM; in the test with IL-6, 40 µM.
For `CCCNC[C@]1(O)[C@H](C)O[C@@H](O[C@H]2[C@H](C)[C@@H](O[C@@H]3O[C@H](C)C[C@H](NC)[C@H]3Oc3ccc(F)c(F)c3)[C@](C)(O)C[C@@H](C)CN[C@H](C)[C@@H](O)[C@](C)(O)[C@@H](CC)OC(=O)[C@@H]2C)C[C@@]1(C)OC` [Example E-36], the “IL-1ß OS of LPS” value in the test on IL-1β was determined as 16 µM. Moreover, in test [1] (at least one BRD strain), the “MIC flag at the example number (Table E)” value was “E-36* (MIC ≤ 64 μg/mL for at least one BRD strain)”. Also, the IC50 came to 3 µM with TNF-α and 10 µM with IL-6.
Consider `CCCNC[C@]1(O)[C@H](C)O[C@@H](O[C@H]2[C@H](C)[C@@H](O[C@@H]3O[C@H](C)C[C@H](NC)[C@H]3Oc3ccc4ccncc4c3)[C@](C)(O)C[C@@H](C)CN[C@H](C)[C@@H](O)[C@](C)(O)[C@@H](CC)OC(=O)[C@@H]2C)C[C@@]1(C)OC` [Example E-56], for which, in the test on IL-1β, the “IL-1ß OS of LPS” value worked out at 100 µM. Further, the “MIC flag at the example number (Table E)” value in test [1] (at least one BRD strain) is given as “E-56* (MIC ≤ 64 μg/mL for at least one BRD strain)”. Also, the IC50 with TNF-α amounted to 11 µM; in the test on IL-6, 120 µM.
For `CCCNC[C@]1(O)[C@H](C)O[C@@H](O[C@H]2[C@H](C)[C@@H](O[C@@H]3O[C@H](C)C[C@H](NC)[C@H]3Oc3ccccc3C)[C@](C)(O)C[C@@H](C)CN[C@H](C)[C@@H](O)[C@](C)(O)[C@@H](CC)OC(=O)[C@@H]2C)C[C@@]1(C)OC` [Example E-61], in that order: 16 µM, “E-61* (MIC ≤ 64 μg/mL for at least one BRD strain)”, 5 µM and 19 µM.
Take `CC[C@H]1OC(=O)[C@H](C)[C@@H](O[C@H]2C[C@@](C)(OC)[C@](O)(CNc3ccccc3)[C@H](C)O2)[C@H](C)[C@@H](O[C@@H]2O[C@H](C)C[C@H](N(C)C)[C@H]2Oc2ccccc2)[C@](C)(O)C[C@@H](C)CN[C@H](C)[C@@H](O)[C@]1(C)O` [Example E-67]: the “IL-1ß OS of LPS” value in the test with IL-1β came to 6 µM. Also, in test [1] (at least one BRD strain), the “MIC flag at the example number (Table E)” value is reported as “E-67* (MIC ≤ 64 μg/mL for at least one BRD strain)”. Further, the IC50 was 5 µM in the test with TNF-α and 8 µM with IL-6.
Regarding `CCCNC[C@]1(O)[C@H](C)O[C@@H](O[C@H]2[C@H](C)[C@@H](O[C@@H]3O[C@H](C)C[C@H](N(C)C)[C@H]3Oc3cccc(OC)c3)[C@](C)(O)C[C@@H](C)CN[C@H](C)[C@@H](O)[C@](C)(O)[C@@H](CC)OC(=O)[C@@H]2C)C[C@@]1(C)OC` [Example E-73], the “IL-1ß OS of LPS” value in the test with IL-1β is 16 µM. Also, the “MIC flag at the example number (Table E)” value in test [1] (at least one BRD strain) is “E-73* (MIC ≤ 64 μg/mL for at least one BRD strain)”. Further, the results for the IC50 in the test with TNF-α and in the test on IL-6 were 5 µM and 18 µM, respectively.
The matching figures for `CCCNC[C@]1(O)[C@H](C)O[C@@H](O[C@H]2[C@H](C)[C@@H](O[C@@H]3O[C@H](C)C[C@H](NC)[C@H]3Oc3ccc(OC)nc3OC)[C@](C)(O)C[C@@H](C)CN[C@H](C)[C@@H](O)[C@](C)(O)[C@@H](CC)OC(=O)[C@@H]2C)C[C@@]1(C)OC` [Example E-77]: 18 µM, “E-77* (MIC ≤ 64 μg/mL for at least one BRD strain)”, 22 µM and 66 µM.
For `CCCNC[C@]1(O)[C@H](C)O[C@@H](O[C@H]2[C@H](C)[C@@H](O[C@@H]3O[C@H](C)C[C@H](NC)[C@H]3Oc3cc(F)c(F)c(F)c3)[C@](C)(O)C[C@@H](C)CN[C@H](C)[C@@H](O)[C@](C)(O)[C@@H](CC)OC(=O)[C@@H]2C)C[C@@]1(C)OC` [Example E-90], in that order: 6 µM, “E-90* (MIC ≤ 64 μg/mL for at least one BRD strain)”, 12 µM and 8 µM.
As for `CCCNC[C@]1(O)[C@H](C)O[C@@H](O[C@H]2[C@H](C)[C@@H](O[C@@H]3O[C@H](C)C[C@H](N(C)C)[C@H]3Oc3ccc(OC)nc3)[C@](C)(O)C[C@@H](C)CN[C@H](C)[C@@H](O)[C@](C)(O)[C@@H](CC)OC(=O)[C@@H]2C)C[C@@]1(C)OC` [Example E-133], the “MIC flag at the example number (Table E)” value in test [1] (at least one BRD strain) is recorded as “E-133* (MIC ≤ 64 μg/mL for at least one BRD strain)”.
For `CC[C@H]1OC(=O)[C@H](C)[C@@H](O[C@H]2C[C@@](C)(OC)[C@](O)(CNc3ccccc3)[C@H](C)O2)[C@H](C)[C@@H](O[C@@H]2O[C@H](C)C[C@H](NC)[C@H]2Oc2ccccc2)[C@](C)(O)C[C@@H](C)CN[C@H](C)[C@@H](O)[C@]1(C)O` [Example E-137], the “MIC flag at the example number (Table E)” value in test [1] (at least one BRD strain) was “E-137* (MIC ≤ 64 μg/mL for at least one BRD strain)”.
As to `CC[C@H]1OC(=O)[C@H](C)[C@@H](O[C@H]2C[C@@](C)(OC)[C@](O)(CNC3CC3)[C@H](C)O2)[C@H](C)[C@@H](O[C@@H]2O[C@H](C)C[C@H](N(C)C)[C@H]2Oc2ccccc2)[C@](C)(O)C[C@@H](C)CN[C@H](C)[C@@H](O)[C@]1(C)O` [Example E-140], the “MIC flag at the example number (Table E)” value in test [1] (at least one BRD strain) is listed as “E-140* (MIC ≤ 64 μg/mL for at least one BRD strain)”.
On to `CCCNC[C@]1(O)[C@H](C)O[C@@H](O[C@H]2[C@H](C)[C@@H](O[C@@H]3O[C@H](C)C[C@H](N(C)C(=O)N(C)c4ccccc4)[C@H]3Oc3ccccc3Cl)[C@](C)(O)C[C@@H](C)CN[C@H](C)[C@@H](O)[C@](C)(O)[C@@H](CC)OC(=O)[C@@H]2C)C[C@@]1(C)OC` [Example F-10], for which the “MIC for at least one BRD strain (asterisk on Ex#)” value (from here on “MIC for at least one BRD strain”) in test [1] is on record as “F-10* (MIC ≤ 64 μg/mL for at least one BRD strain)”.
For `CCCNC[C@]1(O)[C@H](C)O[C@@H](O[C@H]2[C@H](C)[C@@H](O[C@@H]3O[C@H](C)C[C@H](N(C)C(=O)N(C)CCC)[C@H]3Oc3ccccc3)[C@](C)(O)C[C@@H](C)CN[C@H](C)[C@@H](O)[C@](C)(O)[C@@H](CC)OC(=O)[C@@H]2C)C[C@@]1(C)OC` [Example F-11], the “MIC for at least one BRD strain” value in test [1] is listed as “F-11* (MIC ≤ 64 μg/mL for at least one BRD strain)”.
`CCCNC[C@]1(O)[C@H](C)O[C@@H](O[C@H]2[C@H](C)[C@@H](O[C@@H]3O[C@H](C)C[C@H](N(C)C(=O)N(C)c4ccccc4)[C@H]3Oc3cccc(OCC)c3)[C@](C)(O)C[C@@H](C)CN[C@H](C)[C@@H](O)[C@](C)(O)[C@@H](CC)OC(=O)[C@@H]2C)C[C@@]1(C)OC` [Example F-20]: the “MIC for at least one BRD strain” value in test [1] is reported as “F-20* (MIC ≤ 64 μg/mL for at least one BRD strain)”.
On the same count and under the same terms, for `CCCNC[C@]1(O)[C@H](C)O[C@@H](O[C@H]2[C@H](C)[C@@H](O[C@@H]3O[C@H](C)C[C@H](N(C)C(=O)N(C)c4ccccc4)[C@H]3Oc3ccc(C#N)cc3)[C@](C)(O)C[C@@H](C)CN[C@H](C)[C@@H](O)[C@](C)(O)[C@@H](CC)OC(=O)[C@@H]2C)C[C@@]1(C)OC` [Example F-21] the value was “F-21* (MIC ≤ 64 μg/mL for at least one BRD strain)”.
`CCCNC[C@]1(O)[C@H](C)O[C@@H](O[C@H]2[C@H](C)[C@@H](O[C@@H]3O[C@H](C)C[C@H](N(C)C(=O)N4CCOc5ccccc54)[C@H]3Oc3ccccc3)[C@](C)(O)C[C@@H](C)CN[C@H](C)[C@@H](O)[C@](C)(O)[C@@H](CC)OC(=O)[C@@H]2C)C[C@@]1(C)OC` [Example G-2]: the “MIC flag at the example number (Table G)” value in test [1] (at least one BRD strain) was “G-2* (MIC ≤ 64 μg/mL for at least one BRD strain)”.

These data come from US12390441B2, “Immunomodulating o-het/aryl azalides” (Zoetis Services LLC, priority 2020, dated 2025).
